These results are taken from patent US6521814B1, “Use of ligands for treatment of diseases responsive to retinoids” (Institut National de la Santa et de la Recherche Medicale, priority 1997, dated 2003).

In experiment [1] the test system is RARα−/− F9 cells. The experiment in a line: Morphological differentiation of F9 cell aggregates into visceral endoderm (VE)-like cells (morphology, RT-PCR of markers). Type of experiment: cell-based, murine. Particulars: 50 nM. The source says:
(§1) Similarly, after 10 d of treatment, >80% of the outer layer of RARα^−/− and RXRα^−/−/RARα^−/− cell aggregates differentiated into VE-like cells, which were indistinguishable from those of WT and RXRα^−/− cells (FIG. 23A, compare f with panels b and d; and Table 9). […] To exclude the possibility that this very poor differentiation of the RXRα^−/−/RARγ^−/− cells could be due to some clonal variation, rather than the presence of the RXRα-null mutation in the RARγ-null background, we expressed the RXRα cDNA in RXRα^−/−/RARγ^−/− cells.
(§2) F9 cells were cultured and induced to differentiate into primitive, parietal and visceral endoderm-like cells as previously described (Boylan, J., et al., Proc. Natl. Acad. Sci. USA 90:9601-9605 (1993); Clifford, J., et al., EMBO J. 15:4142-4155 (1996)).
(§3) RNA preparation, RT-PCR, and Southern blotting were performed as previously described (Bouillet, P., et al., Dev. Biol. 170:420-433 (1995); Roy, B., et al., Mol. Cell. Biol. 15:6481-6487 (1995)). The PCR primers and end-labeled oligonucleotide probes for collagen IVα1, laminin B1, α-fetoprotein (AFP), and 36B4, were described previously (Clifford, J., et al ., EMBO J. 15:4142-4155 (1996)). Transcript levels were quantified using a BAS 2000 bioimaging analyzer (Fuji Ltd., Tokyo, Japan), and were normalized to the corresponding 36B4 signals.

Experiment [2] deals with WT F9 cells. Described as above. Particulars: 50 nM, 10 d. Type of experiment: cell-based, murine.
Description: as §1, §2, §3

Experiment [3] concerns WT F9 cells. Nature of the experiment: Proliferation of F9 cells in monolayer culture (cell counting, [3H]thymidine incorporation, cell cycle FACS). Type of experiment: cell-based, murine. Particulars: 1 μM, 5 d. Here is the method:
Cells were plated in triplicate 3-cm culture wells (5×10^2 cells per well), and cell counting experiments were performed as previously described (Clifford, J., et al., EMBO J. 15:4142-4155 (1996)). [^3H]Thymidine incorporation assays were performed essentially as described (Clifford, J., et al., EMBO J. 15:4142-4155 (1996)), with the following modifications. […] The cell cycle profile of WT and mutant cells was determined as previously described (Clifford, J., et al. EMBO J. 15:4142-4155 (1996)).
On the technique in general: Uptake of a labelled nucleoside into DNA is a usual measure of proliferation.

For experiment [4], the system named is RXRα−/−/RARγ−/− F9 cells. The description is as above. Type of experiment: cell-based, murine. To be noted: 1 μM.
Experiment [5] addresses T1, RARα (Mus musculus, UniProt P11416).
T1 construct: expressed in transfected cells; host or cells: COS-1
T1 sequence (P11416 1-462): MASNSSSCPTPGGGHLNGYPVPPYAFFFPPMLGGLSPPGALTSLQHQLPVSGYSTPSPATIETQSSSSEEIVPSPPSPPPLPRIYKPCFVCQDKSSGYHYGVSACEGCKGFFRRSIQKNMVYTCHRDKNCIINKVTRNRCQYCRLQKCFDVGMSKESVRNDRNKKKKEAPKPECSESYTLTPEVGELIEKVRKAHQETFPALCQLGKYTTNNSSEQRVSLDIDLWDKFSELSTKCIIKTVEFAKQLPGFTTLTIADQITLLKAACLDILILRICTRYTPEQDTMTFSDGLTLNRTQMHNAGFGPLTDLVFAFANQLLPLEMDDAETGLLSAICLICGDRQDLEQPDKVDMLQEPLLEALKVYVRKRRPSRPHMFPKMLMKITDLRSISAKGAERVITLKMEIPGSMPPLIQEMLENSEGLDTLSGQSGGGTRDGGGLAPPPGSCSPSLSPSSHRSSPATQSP
Nature of the experiment: D2R promoter CAT reporter assay in COS-1 cells cotransfected with RARα expression vector. Type of experiment: cell-based. Particulars: 0.1 μM. A general note: A reporter such as luciferase makes a cellular process visible.
Description: The C1 reporter construct was obtained by subcloning the HindIII fragment spanning the 5 ′ promoter region of the D2R gene (positions −495 to +273), in the reporter plasmid pBLCAT3 (Luckow, B. & Schütz, G., Nucleic Acids Res. 15:5490 (1987)). The C2 reporter plasmid was constructed by subcloning the SmaI-XhoI fragment (positions −76 to +273) in the same position. The C3 and C4 reporters were generated by cloning a 29 bp synthetic oligonucleotide corresponding, respectively, to the natural rat D2R RARE sequence and the mutated one into pBLCAT2 (Luckow, B. & Schütz, G., Nucleic Acids Res. 15:5490 (1987)). The polylinker in pBLCAT2 is located upstream of the herpes simplex virus 1 (HSV1) thymidine kinase (TK) promoter, from position −105 to +51. To measure transfection efficiency the plasmid pCH110 carrying the β-galactosidase gene (Pharmacia) was used. Mouse RARβ, β and γ, as well as mouse RXRα, β and γ expression vectors were derived from the parental pSG5 vector (Green, S., et al., Nucleic Acids Res. 16:369 (1988)).
COS-1 cells were used for transient transfection assays. Cells were grown in Dulbecco's modified Eagle's medium supplemented with 5% fetal calf serum.
Several hours before transfection, the medium was replaced with fresh medium containing 5% charcoal-treated FCS. […]

For the molecule `CC1=C(/C=C/C(C)=C/C=C/C(C)=C/C(=O)O)C(C)(C)CCC1` [tRA, all-trans retinoic acid], the “proportion of outer layer of cells displaying VE morphology” value in experiment [1] (10 d) and in experiment [2] (WT) was “+++ (more than 80%)” in each case. Besides, the “outer layer of cell aggregates differentiated into VE-like cells” value in experiment [1] (after 10 d) is on record as greater than 80%. The “induction of collagen type IVα1, laminin B1 and AFP mRNA” value in experiment [2] (WT aggregates) is on record as “similarly induced”. Further, in experiment [3], the “proportion of cells in the G0 and G1 phases (FACS)” value is 71%. For the same molecule, the “inhibition of [3H]thymidine incorporation” value in experiment [4] (4 d) was “no inhibition”. For the same molecule, the “cell cycle profile (FACS)” value in experiment [4] (5 d) is reported as “not significantly affected”. Also, the “effect on number of cells (cell counting)” value in experiment [4] (6 d) is “did not reduce, but slightly increased”. The “increase of CAT activity” value is 16 fold in experiment [5] (C1 reporter + RARα expression vector) and 35 fold in experiment [5] (C2 reporter + RARα expression vector).
